Experiment [1] addresses isolated recombinant JAK1 kinase domain (Homo sapiens (Human), UniProt P23458). Briefly: JAK1 enzyme assay (Caliper LabChip, peptide phosphorylation). It counts as biochemical. To be noted: isolated recombinant JAK1 kinase domain, 25 μM ATP.
The test system of experiment [2] is JAK1-dependent STAT6 phosphorylation downstream of IL-13 stimulation in TF-1 human erythroleukemia cells. Briefly: JAK1 pathway assay in TF-1 cells (IL-13-pSTAT6, MSD). To be noted: Homo sapiens, TF-1, TF-1 cells, read-out: IL13-pSTAT6 EC50_TF-1. It counts as cell-based. On the procedure: JAK1 Pathway Assay in Cell Lines was Carried Out as Follows:
Inhibitor potency (EC50) was determined in cell-based assays designed to measure JAK1 dependent STAT phosphorylation.
In one assay approach, TF-1 human erythroleukemia cells obtained from the American Type Culture Collection (ATCC; Manassas, Va.) were used to measure JAK1-dependent STAT6 phosphorylation downstream of IL-13 stimulation. Prior to use in the assays, TF-1 cells were starved of GM-CSF overnight in OptiMEM medium (Life Technologies, Grand Island, N.Y.) supplemented with 0.5% charcoal/dextran stripped fetal bovine serum (FBS), 0.1 mM non-essential amino acids (NEAA), and 1 mM sodium pyruvate. The assays were run in 384-well plates in serum-free OptiMEM medium using 300,000 cells per well. In a second assay approach, BEAS-2B human bronchial epithelial cells obtained from ATCC were plated at 100,000 cells per well of a 96-well plate one day prior to the experiment. The BEAS-2B assay was run in complete growth medium (bronchial epithelial basal medium plus bulletkit; Lonza; Basel, Switzerland).
Test compounds were serially diluted 1:2 in DMSO and then diluted 1:50 in medium just before use. Diluted compounds were added to the cells, for a final DMSO concentration of 0.2%, and incubated for 30 min (for the TF-1 assay) or 1 hr (for the BEAS-2B assay) at 37° C. Then, cells were stimulated with human recombinant cytokine at their respective EC90 concentrations, as previously determined for each individual lot. Cells were stimulated with IL-13 (R&D Systems, Minneapolis, Minn.) for 15 min at 37° C. The TF-1 cell reactions were stopped by the direct addition of 10× lysis buffer (Cell Signaling Technologies, Danvers, Mass.), whereas the BEAS-2B cell incubations were halted by the removal of medium and addition of 1× lysis buffer. The resultant samples were frozen in the plates at −80° C. Compound mediated inhibition of STAT6 phosphorylation was measured in the cell lysates using MesoScale Discovery (MSD) technology (Gaithersburg, Md.).

The target of experiment [3] is isolated recombinant JAK2 kinase domain (Homo sapiens (Human), UniProt O60674). Briefly: JAK2 enzyme assay (Caliper LabChip, peptide phosphorylation). To be noted: 25 μM ATP. It counts as biochemical.
Chain of isolated recombinant JAK2 kinase domain (O60674 849-1124): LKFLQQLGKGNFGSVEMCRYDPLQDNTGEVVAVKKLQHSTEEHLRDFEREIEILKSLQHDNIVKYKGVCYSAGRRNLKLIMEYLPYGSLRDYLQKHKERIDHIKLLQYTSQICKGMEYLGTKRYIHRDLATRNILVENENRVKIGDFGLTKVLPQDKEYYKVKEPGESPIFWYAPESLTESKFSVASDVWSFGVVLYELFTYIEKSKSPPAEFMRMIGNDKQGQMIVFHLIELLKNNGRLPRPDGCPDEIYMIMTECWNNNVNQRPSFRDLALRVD

Chain of isolated recombinant JAK1 kinase domain (P23458 875-1153): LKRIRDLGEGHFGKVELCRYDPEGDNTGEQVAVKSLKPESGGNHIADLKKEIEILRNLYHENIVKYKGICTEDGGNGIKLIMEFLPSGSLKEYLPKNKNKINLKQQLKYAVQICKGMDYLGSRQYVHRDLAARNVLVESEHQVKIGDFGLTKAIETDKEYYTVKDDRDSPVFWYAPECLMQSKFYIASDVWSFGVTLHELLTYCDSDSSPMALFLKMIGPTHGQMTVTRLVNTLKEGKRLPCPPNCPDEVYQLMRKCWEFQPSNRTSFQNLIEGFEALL

With `CN1CCC2CN(C(=O)Cn3cc(NC(=O)c4c(N)nn5cccnc45)c(-c4cc(Cl)ccc4OC(F)F)n3)CCC21` (stereo not shown) [Example 56, 2-amino-N-[3-[5-chloro-2-(difluoromethoxy)phenyl]-1-[2-(1-methyl-3,3a,4,6,7,7a-hexahydro-2H-pyrrolo[3,2-c]pyridin-5-yl)-2-oxo-ethyl]pyrazol-4-yl]pyrazolo[1,5-a]pyrimidine-3-carboxamide], in experiment [1], the Ki stood at 0.74 nM. Moreover, in experiment [2], the EC50 was 6.9 nM.
For `NC[C@@H]1CCCN1C(=O)Cn1cc(NC(=O)c2cnn3cccnc23)c(-c2cc(Cl)ccc2OC(F)F)n1` [Example 81, N-[1-[2-[(2S)-2-(aminomethyl)pyrrolidin-1-yl]-2-oxo-ethyl]-3-[5-chloro-2-(difluoromethoxy)phenyl]pyrazol-4-yl]pyrazolo[1,5-a]pyrimidine-3-carboxamide] the same measures were 5.35 nM and 253 nM.
The corresponding values for `O=C(Nc1cn(CC(=O)N2CCC(NCCc3ccc(C(F)(F)F)cc3)CC2)nc1-c1cc(Cl)ccc1OC(F)F)c1cnn2cccnc12` [Example 93, N-[3-[5-chloro-2-(difluoromethoxy)phenyl]-1-[2-oxo-2-[4-[2-[4-(trifluoromethyl)phenyl]ethylamino]-1-piperidyl]ethyl]pyrazol-4-yl]pyrazolo[1,5-a]pyrimidine-3-carboxamide] are 1.28 nM and 95.9 nM.
As to `Nc1nn2cccnc2c1C(=O)Nc1cn(C2CCN(CCCC(=O)N3CCOCC3)CC2)nc1-c1cc(Cl)ccc1OC(F)F` [Example 147, 2-amino-N-[3-[5-chloro-2-(difluoromethoxy)phenyl]-1-[1-(4-morpholino-4-oxo-butyl)-4-piperidyl]pyrazol-4-yl]pyrazolo[1,5-a]pyrimidine-3-carboxamide], the inhibition constant (Ki) in experiment [1] turned out to be 0.55 nM. Besides, the EC50 in experiment [2] stood at 11.8 nM.
Consider `CN1CCC(n2cc(NC(=O)c3c(N)nn4cccnc34)c(-c3cc(Cl)ccc3OC(F)F)n2)CC1` [Example 184, 2-amino-N-[3-[5-chloro-2-(difluoromethoxy)phenyl]-1-(1-methyl-4-piperidyl)pyrazol-4-yl]pyrazolo[1,5-a]pyrimidine-3-carboxamide], for which, in experiment [2], the EC50 stood at 3.5 nM.
Still for that read-out and setting: for `CN(C)C1CCN(C(=O)C2CCN(c3nc(-c4cc(Cl)ccc4OC(F)F)c(NC(=O)c4cnn5cccnc45)s3)CC2)CC1` [Example 197, N-[4-[5-chloro-2-(difluoromethoxy)phenyl]-2-[4-[4-(dimethylamino)piperidine-1-carbonyl]-1-piperidyl]thiazol-5-yl]pyrazolo[1,5-a]pyrimidine-3-carboxamide] the value was 6.2 nM.
Take `CN1CC2(CCN(C(=O)Cn3cc(NC(=O)c4cnn5cccnc45)c(-c4cc(Cl)ccc4OC(F)F)n3)CC2)C1` [Example 218, N-[3-[5-chloro-2-(difluoromethoxy)phenyl]-1-[2-(2-methyl-2,7-diazaspiro[3.5]nonan-7-yl)-2-oxo-ethyl]pyrazol-4-yl]pyrazolo[1,5-a]pyrimidine-3-carboxamide]: in experiment [1], the Ki came to 1.01 nM. Moreover, in experiment [2], the EC50 amounted to 75.6 nM.
Consider `CN1CC2(CCN(C(=O)Cn3cc(NC(=O)c4cnn5cccnc45)c(-c4cc(Cl)ccc4OC(F)F)n3)C2)C1` [Example 221, N-[3-[5-chloro-2-(difluoromethoxy)phenyl]-1-[2-(2-methyl-2,6-diazaspiro[3.4]octan-6-yl)-2-oxo-ethyl]pyrazol-4-yl]pyrazolo[1,5-a]pyrimidine-3-carboxamide], for which the inhibitory constant (Ki) in experiment [1] came to 0.92 nM. Besides, the EC50 in experiment [2] came to 130 nM.
Consider `CN1C[C@H]2C[C@@H]1CN2C(=O)Cn1cc(NC(=O)c2c(N)nn3cccnc23)c(-c2cc(Cl)ccc2OC(F)F)n1` [Example 252, 2-amino-N-[3-[5-chloro-2-(difluoromethoxy)phenyl]-1-[2-[(1R,4R)-5-methyl-2,5-diazabicyclo[2.2.1]heptan-2-yl]-2-oxo-ethyl]pyrazol-4-yl]pyrazolo[1,5-a]pyrimidine-3-carboxamide], for which the EC50 in experiment [2] was 43 nM.
For the compound `O=C(Nc1cn(CC(=O)N2CCC(O)(c3ccncc3)CC2)nc1-c1cc(Cl)ccc1OC(F)F)c1cnn2cccnc12` [Example 276, N-[3-[5-chloro-2-(difluoromethoxy)phenyl]-1-[2-[4-hydroxy-4-(4-pyridyl)-1-piperidyl]-2-oxo-ethyl]pyrazol-4-yl]pyrazolo[1,5-a]pyrimidine-3-carboxamide], the Ki in experiment [1] was found to be 0.23 nM; in experiment [3], 0.18 nM.
In the case of `O=C(Nc1cn(CC(=O)N2CCOC(CO)C2)nc1-c1cc(Cl)ccc1OC(F)F)c1cnn2cccnc12` (stereo not shown) [Example 277, N-[3-[5-chloro-2-(difluoromethoxy)phenyl]-1-[2-[2-(hydroxy-methyl)morpholin-4-yl]-2-oxo-ethyl]pyrazol-4-yl]pyrazolo[1,5-a]pyrimidine-3-carboxamide], the values for the Ki in experiment [1] and in experiment [3] were 0.51 nM and 0.83 nM, respectively.
The corresponding values for `Nc1nn2cccnc2c1C(=O)Nc1cn(CC(=O)N2CCC(O)(Cc3ccccc3)CC2)nc1-c1cc(Cl)ccc1OC(F)F` [Example 279, 2-amino-N-[1-[2-(4-benzyl-4-hydroxy-1-piperidyl)-2-oxo-ethyl]-3-[5-chloro-2-(difluoromethoxy)phenyl]pyrazol-4-yl]pyrazolo[1,5-a]pyrimidine-3-carboxamide] are 0.39 nM and 0.22 nM.
The corresponding values for `Nc1nn2cccnc2c1C(=O)Nc1cn(CC(=O)N2CCC(F)(F)C2)nc1-c1cc(Cl)ccc1OC(F)F` [Example 282, 2-amino-N-[3-[5-chloro-2-(difluoromethoxy)phenyl]-1-[2-(3,3-difluoropyrrolidin-1-yl)-2-oxo-ethyl]pyrazol-4-yl]pyrazolo[1,5-a]pyrimidine-3-carboxamide] are 0.17 nM and 0.12 nM.
For `N#CC1(c2ccccc2)CCN(C(=O)Cn2cc(NC(=O)c3c(N)nn4cccnc34)c(-c3cc(Cl)ccc3OC(F)F)n2)CC1` [Example 283, 2-amino-N-[3-[5-chloro-2-(difluoromethoxy)phenyl]-1-[2-(4-cyano-4-phenyl-1-piperidyl)-2-oxo-ethyl]pyrazol-4-yl]pyrazolo[1,5-a]pyrimidine-3-carboxamide] the same measures were 0.55 nM and 0.29 nM.
Consider `Nc1nn2cccnc2c1C(=O)Nc1cn(CC(=O)N2CCC(Oc3ccccc3)CC2)nc1-c1cc(Cl)ccc1OC(F)F` [Example 285, 2-amino-N-[3-[5-chloro-2-(difluoromethoxy)phenyl]-1-[2-oxo-2-(4-phenoxy-1-piperidyl)ethyl]pyrazol-4-yl]pyrazolo[1,5-a]pyrimidine-3-carboxamide], for which the Ki stood at 0.61 nM in experiment [1] and 0.47 nM in experiment [3].
The corresponding values for `Nc1nn2cccnc2c1C(=O)Nc1cn(CC(=O)N2CCC(O)(c3ccccc3)CC2)nc1-c1cc(Cl)ccc1OC(F)F` [Example 286, 2-amino-N-[3-[5-chloro-2-(difluoromethoxy)phenyl]-1-[2-(4-hydroxy-4-phenyl-1-piperidyl)-2-oxo-ethyl]pyrazol-4-yl]pyrazolo[1,5-a]pyrimidine-3-carboxamide] are 0.54 nM and 0.26 nM.
For `O=C(Nc1cn(CC(=O)N2CCC(F)(F)C2)nc1-c1cc(Cl)ccc1OC(F)F)c1cnn2cccnc12` [Example 287, N-[3-[5-chloro-2-(difluoromethoxy)phenyl]-1-[2-(3,3-difluoropyrrolidin-1-yl)-2-oxo-ethyl]pyrazol-4-yl]pyrazolo[1,5-a]pyrimidine-3-carboxamide] the same measures were 0.35 nM and 0.65 nM.
For `O=C(Nc1cn(CC(=O)N2CCC(O)(c3ccccc3)CC2)nc1-c1cc(Cl)ccc1OC(F)F)c1cnn2cccnc12` [Example 289, N-[3-[5-chloro-2-(difluoromethoxy)phenyl]-1-[2-(4-hydroxy-4-phenyl-1-piperidyl)-2-oxo-ethyl]pyrazol-4-yl]pyrazolo[1,5-a]pyrimidine-3-carboxamide] the same measures were 0.3 nM and 0.38 nM.
As for `Nc1nn2cccnc2c1C(=O)Nc1cn(CC(=O)N2CCOCC2)nc1-c1cc(Cl)ccc1OC(F)F` [Example 290, 2-amino-N-[3-[5-chloro-2-(difluoromethoxy)phenyl]-1-(2-morpholino-2-oxo-ethyl)pyrazol-4-yl]pyrazolo[1,5-a]pyrimidine-3-carboxamide], the inhibitory constant (Ki) came out at 0.24 nM in experiment [1] and 0.11 nM in experiment [3].
The corresponding values for `CCOC(=O)CN(CCn1cc(NC(=O)c2cnn3cccnc23)c(-c2cc(Cl)ccc2OC(F)F)n1)Cc1cccnc1` [Example 362, ethyl 2-[(2-[3-[5-chloro-2-(difluoromethoxy)phenyl]-4-[pyrazolo[1,5-a]pyrimidine-3-amido]-1H-pyrazol-1-yl]ethyl)(pyridin-3-ylmethyl)amino]acetate] are 5.04 nM and 3.27 nM.

Broadly, the Ki is a dissociation constant, usually derived from enzyme kinetics or from competition with a known ligand.

These data come from patent US9346815B2, “5-chloro-2-difluoromethoxyphenyl pyrazolopyrimidine compounds, compositions and methods of use thereof” (Genentech, Inc., priority 2014, dated 2016).
